The compounds below were run on HepG2 cells (assay: Caspase 3/7 activity in HepG2 cells). Details: HepG2, >2-log concentration range, versus % v/v-matched DMSO.
Assay type: cell-based
Description: (§1) Cells were treated with either the example compounds or vehicle control containing correspondingly % v/v-matched amounts of DMSO spanning a >2-log concentration range. Data represents mean±s.d. and representative of at least 2 experimental replicates.
as §1, with “HepG2 cells are an immortalized liver cell line commonly used to study apoptosis induced by small molecules. Cells” for “Cells”

Row | SMILES | Normalized caspase 3/7 activity
1 | COc1ccc(CCCc2nc3ccccc3[nH]2)cc1 [VII-14, 1H-Benzimidazole, 2-[3-(4-methoxyphenyl)propyl]-] | did not exhibit any caspase activation

What follows are compounds tested on TK.6 lymphoblasts (assay: TK.6 micronucleus assay). Details: not given.
Assay type: cell-based
Description: The safety/toxicology profiles of a compound or salt of the present disclosure was evaluated via a series of in vitro genotoxicity assays, including the SOS-chromotest to determine bacterial genotoxicity, and the TK.6 micronucleus assay to determine chromosomal damage and forward mutations. Standard reactive oxygen species (ROS) and caspase 3/7 assay were conducted to determine general cellular toxicity. Moreover, a series of sensitization tests were conducted to predict any potential skin sensitivity. These include the direct peptide reactivity assay to evaluate haptenization, the KeratinoSens reporter assay to determine potential sensitivity via the activation of a cytoprotective pathway, and an immunological assay using human immature monocyte-derived dendritic cells to evaluate any potential immunogenicity.
TK.6 lymphoblasts are a well-studied cell line commonly used for gene mutation analyses. They are heterozygous for the thymidine kinase gene (TK) and enable the detection of forward mutations and chromosomal damage, which manifests as micronuclei and are detectable via flow cytometry.
TK.6 cells were dosed with the example compounds or a vehicle control (0.1% v/v DMSO) and cultured with or without S9 metabolic activation for 24 hr. […] Methyl methanesulfonate, a known genotoxic, alkylating agent was used as a positive control for micronuclei detection.
The micronucleus assay was also performed to determine if the compounds are genotoxic by evaluating the presence of micronuclei. […] In combination. […] I-17 elicited genotoxicity at >3.125 μg/mL.

Row | SMILES | micronuclei formation / genotoxic effect in TK.6 cells
2 | COc1ccc(CCCc2nc3ccccc3[nH]2)cc1 [VII-14, 1H-Benzimidazole, 2-[3-(4-methoxyphenyl)propyl]-] | do not promote any micronuclei formation

Each compound was assayed on human hair follicle dermal papilla cells (hFDPC) (assay: Human follicle dermal papilla cells (hFDPC) proliferation assay). Details: hFDPCs supplemented with BIO, BMP-2 and FGFβ.
Assay type: cell-based
Source text: In Table 8, A represents less than 20% of increased proliferation of hFDPCs, B represents 20-40%, and C represents larger than 40% of increased proliferation of hFDPCs.

Row | SMILES | Percent Increase Proliferation of hFDPCs (%)
3 | COc1ccc(CCCc2nc3ccccc3[nH]2)cc1 [VII-14, 1H-Benzimidazole, 2-[3-(4-methoxyphenyl)propyl]-] | A (A represents less than 20% of increased proliferation of hFDPCs)
4 | Cc1ccc(-c2nc3ncccc3o2)cc1NC(=S)NC(=O)c1ccc(C(C)(C)C)cc1 [VII-24, Benzamide, 4-(1,1-dimethylethyl)-N-[[(2-methyl-5-oxazolo[4,5-b]pyridin-2-ylphenyl)amino]thioxomethyl]-] | A (A represents less than 20% of increased proliferation of hFDPCs)
5 | Cc1ccc(-c2nnc(N3CCN(S(C)(=O)=O)CC3)c3ccccc23)cc1 [II-3, Phthalazine, 1-(4-methylphenyl)-4-[4-(methylsulfonyl)-1-piperazinyl]-] | B (B represents 20-40%)
6 | C=CCc1cc(/C=C2\C(=O)NC(=O)N(c3cc(C)cc(C)c3)C2=O)cc(OCC)c1O [I-2, 2,4,6(1H,3H,5H)-Pyrimidinetrione, 1-(3,5-dimethylphenyl)-5-[[3-ethoxy-4-hydroxy-5-(2-propen-1-yl)phenyl]methylene]-] | B (B represents 20-40%)
7 | Cc1ccc(C(=O)N2CCN(c3nnc(-c4ccc(C)cc4)c4ccccc34)CC2)cc1 [II-2, Methanone, (4-methylphenyl)[4-[4-(4-methylphenyl)-1-phthalazinyl]-1-piperazinyl]-] | B (B represents 20-40%)
8 | CCS(=O)(=O)n1[nH]c(-c2ccco2)nc1=N [VII-2, 1H-1,2,4-Triazol-5-amine, 1-(ethylsulfonyl)-3-(2-furanyl)-] | A (A represents less than 20% of increased proliferation of hFDPCs)
9 | Cc1cc(C)n(Cc2ccc(NC(=O)c3cc(-c4ccc(C)c(C)c4)nc4ccccc34)cc2)n1 [III-3, 4-Quinolinecarboxamide, 2-(3,4-dimethylphenyl)-N-[4-[(3,5-dimethyl-1H-pyrazol-1-yl)methyl]phenyl]-] | B (B represents 20-40%)
10 | Cc1ccc(-n2ncc3c(N4CCCCC4)ncnc32)c(C)c1 [V-2, 1H-Pyrazolo[3,4-d] pyrimidine, 1-(2,4-dimethylphenyl)-4-(1-piperidinyl)-] | A (A represents less than 20% of increased proliferation of hFDPCs)
11 | COc1ccc(CC(=O)Nc2sc3c(c2C(=O)Nc2cccc([N+](=O)[O-])c2)CCC(C)C3)cc1 (stereo not shown) [VII-22, Benzo[b]thiophene-3-carboxamide, 4,5,6,7-tetrahydro-2-[[2-(4-methoxyphenyl)acetyl]amino]-6-methyl-N-(3-nitrophenyl)-] | A (A represents less than 20% of increased proliferation of hFDPCs)
12 | CCOC(=O)c1cnn(-c2cccc(NC(=O)C3CCN(c4ncccn4)CC3)c2)c1C [VII-8, 1H-Pyrazole-4-carboxylic acid, 5-methyl-1-[3-[[[1-(2-pyrimidinyl)-4-piperidinyl]carbonyl]amino]phenyl]-, ethyl ester] | A (A represents less than 20% of increased proliferation of hFDPCs)
13 | C=CCc1cc(/C=C2\C(=O)NC(=O)N(c3cc(C)cc(C)c3)C2=O)cc(OC)c1O [I-3, 2,4,6(1H,3H,5H)-Pyrimidinetrione, 1-(3,5-dimethylphenyl)-5-[[4-hydroxy-3-methoxy-5-(2-propen-1-yl)phenyl]methylene]-] | A (A represents less than 20% of increased proliferation of hFDPCs)
14 | O=C(C1CCN(S(=O)(=O)c2ccccc2)CC1)N1CCN(Cc2ccc3c(c2)OCO3)CC1 [VI-1, Methanone, [4-(1,3-benzodioxol-5-ylmethyl)-1-piperazinyl][1-(phenylsulfonyl)-4-piperidinyl]-] | A (A represents less than 20% of increased proliferation of hFDPCs)
15 | COc1ccc(N(CC(=O)N2CCN(c3ccccc3OC)CC2)S(=O)(=O)c2ccccc2)cc1 [VII-16, Benzenesulfonamide, N-(4-methoxyphenyl)-N-[2-[4-(2-methoxyphenyl)-1-piperazinyl]-2-oxoethyl]-] | A (A represents less than 20% of increased proliferation of hFDPCs)
16 | Cc1ccc(Cn2ncc3c(N4CCCC4)ncnc32)cc1 [V-1, 1H-Pyrazolo[3,4-d] pyrimidine, 1-[(4-methylphenyl)methyl]-4-(1-pyrrolidinyl)-] | A (A represents less than 20% of increased proliferation of hFDPCs)
17 | C=CCc1cc(C=C2C(=O)NC(=S)NC2=O)cc(OC)c1O [I-9, 4,6(1H,5H)-Pyrimidinedione, dihydro-5-[[4-hydroxy-3-methoxy-5-(2-propen-1-yl)phenyl]methylene]-2-thioxo-] | B (B represents 20-40%)
18 | O=C(O)CC1SC(NN=Cc2ccc(OS(=O)(=O)c3ccc([N+](=O)[O-])cc3)cc2)=NC1=O (stereo not shown) [VI-6, 5-Thiazoleacetic acid, 4,5-dihydro-2-[2-[[4-[[(4-nitrophenyl)sulfonyl]oxy]phenyl]methylene] hydrazinyl]-4-oxo-] | A (A represents less than 20% of increased proliferation of hFDPCs)
19 | CN1C(=O)NC(=O)/C(=C/c2cnc(N(C)C)nc2)C1=O [I-13, 2,4,6(1H,3H,5H)-Pyrimidinetrione, 5-[[2-(dimethylamino)-5-pyrimidinyl]methylene]-1-methyl-] | A (A represents less than 20% of increased proliferation of hFDPCs)
20 | CC1CCCCN1c1nc(-c2ccccc2)nc2sc(-c3ccccc3)cc12 (stereo not shown) [V-3, Thieno[2,3-d] pyrimidine, 4-(2-methyl-1-piperidinyl)-2,6-diphenyl-] | B (B represents 20-40%)
21 | Cc1cc(C)cc(N2Cc3ccccc3C2)c1 [VII-12, 1H-Isoindole, 2-(3,5-dimethylphenyl)-2,3-dihydro-] | A (A represents less than 20% of increased proliferation of hFDPCs)
22 | C=CCc1cc(C=C2C(=O)NC(=S)NC2=O)cc(OCC)c1O [I-8] | B (B represents 20-40%)
23 | Cc1ccccc1Cn1nc(C)c(NC(=O)c2csc3ccccc23)c1C [VII-26, Benzo[b]thiophene-3-carboxamide, N-[3,5-dimethyl-1-[(2-methylphenyl)methyl]-1H-pyrazol-4-yl]-] | A (A represents less than 20% of increased proliferation of hFDPCs)
24 | O=C1Nc2ccccc2SC1CC(=O)N1CCN(C(c2ccccc2)c2ccccc2)CC1 (stereo not shown) [VII-17, 2H-1,4-Benzothiazin-3(4H)-one, 2-[2-[4-(diphenylmethyl)-1-piperazinyl]-2-oxoethyl]-] | A (A represents less than 20% of increased proliferation of hFDPCs)
25 | CCCC(=O)N1CCN(c2nnc(-c3ccc(C)cc3)c3ccccc23)CC1 [II-6, 1-Butanone, 1-[4-[4-(4-methylphenyl)-1-phthalazinyl]-1-piperazinyl]-] | B (B represents 20-40%)
26 | CCN(Cc1ccccc1)C(=O)c1ccc(C(=O)N(CC)Cc2ccccc2)cc1 [VII-20, 1,4-Benzenedicarboxamide, N^1,N^4-diethyl-N^1, N^4-bis(phenylmethyl)-] | A (A represents less than 20% of increased proliferation of hFDPCs)
27 | Cc1ccc(-c2nnc(N3CCN(C(=O)C4CCCCC4)CC3)c3ccccc23)cc1 [II-1, Methanone, cyclohexyl[4-[4-(4-methylphenyl)-1-phthalazinyl]-1-piperazinyl]-] | A (A represents less than 20% of increased proliferation of hFDPCs)
28 | CCn1c(SCC(=O)c2ccc(S(=O)(=O)N3CCCC3)cc2)nnc1-c1ccco1 [VII-4, Ethanone, 2-[[4-ethyl-5-(2-furanyl)-4H-1,2,4-triazol-3-yl]thio]-1-[4-(1-pyrrolidinylsulfonyl)phenyl]-] | A (A represents less than 20% of increased proliferation of hFDPCs)
29 | CC12C=CC(=O)C=C1CCC1C2C(O)CC2(C)C1CC[C@]2(O)C(=O)COC(=O)CCC(=O)O (stereo partly drawn) [VII-19, Pregna-1,4-diene-3, 20-dione, 21-(3-carboxy-1-oxopropoxy)-11,17-dihydroxy-, (11β)-] | A (A represents less than 20% of increased proliferation of hFDPCs)
30 | COc1cc([N+](=O)[O-])cc(/C=C2\C(=O)NC(=O)N(C)C2=O)c1O [I-15, 2,4,6(1H,3H,5H)-Pyrimidinetrione, 5-[(2-hydroxy-3-methoxy-5-nitrophenyl)methylene]-1-methyl-] | B (B represents 20-40%)
31 | NC(=O)c1ccc(NC(=O)CCCc2nc(-c3ccccc3)no2)cc1 [VII-5, 1,2,4-Oxadiazole-5-butanamide, N-[4-(aminocarbonyl)phenyl]-3-phenyl-] | A (A represents less than 20% of increased proliferation of hFDPCs)
